In patent US4321386A, “Quaternary piperidinium halides” (Mead Johnson & Company, priority 1981, dated 1982):
Read-outs that look alike come from different tables or passages of the source.

Key:
[1] = Oral toxicity testing in mice (ALD50, ATD50); settings: mouse, in vivo
Procedure: ^(1) Various oral doses of from 5 mg/kg to 2000 mg/kg are given to 2
mice each; ALD50 is the approximate lethal dose for half the animals
ATD50 is the approximate lowest dose where signs of physiologic or […]

[2] = system: Ventricular arrhythmia produced in mice by chloroform inhalation; assay: Chloroform induced arrhythmia test in the mouse; type: in vivo; settings: inhaled or nasal, 10 animals per dose, read-out: Antiarrhythmic Activity Mouse ED50
Description: ^(2) Ventricular arrhythmia produced in mice by chloroform inhalation
10 animals per dose (Lawson, J. W., J. Pharmacol. Exp. Therap., 160, 22

[3] = mice, oral, approximate lethal dose for half the animals, read-out: Toxicity ALD50
[4] = mice, oral, approximate lowest dose where signs of physiologic or neurologic deficit appear, read-out: Toxicity ATD50

For `COc1ccc(C(=O)Nc2ccccc2CCC2CCCC[N+]2(C)Cc2ccccc2)cc1` (stereo not drawn) [IIb, 2-[2--[2-[(4-Methoxybenzoyl)amino]phenyl]ethyl]-1-methyl-1-(phenylmethyl)piperidinium Bromide Hydrate], the LD50 ([1]; po) was > 1000 mg/kg, the TD50 ([1]; po) was 125 to 250 mg/kg and the ED50 [2] was 19 mg/kg.

For `COc1ccc(C(=O)Nc2ccccc2CCC2CCCC[N+]2(C)C)cc1.[I-]` (stereo not drawn) [IIa, 2-[2-[2-[(4-Methoxybenzoyl)amino]phenyl]ethyl]-1,1-dimethylpiperidinium Iodide], the LD50 [1, 3] was > 2000 mg/kg, the TD50 [1, 4] was 250 mg/kg and the ED50 [2] was 30.5 mg/kg.

Compound `COc1ccc(C(=O)Nc2ccccc2CCC2CCCCN2C)cc1` (stereo not drawn) [I, reference compound] has an LD50 [1, 3] of 50 to 100 mg/kg, a TD50 [1, 4] of 5 to 10 mg/kg and an ED50 [2] of 7 to 15 mg/kg.
